Measurements: publication PMC8073976, “Towards Targeted Alpha Therapy with Actinium-225: Chelators for Mild Condition Radiolabeling and Targeting PSMA—A Proof of Concept Study” (Cancers, 2021)

How the values were obtained:
[1] = 225Ac-labeling of ligands in serial dilution, radiochemical yield and 7-day stability by TLC; assay type: physicochemical; details: 100 kBq actinium-225, 0.2 M ammonium acetate buffer pH 6, after seven days; for RCY NP (7 d): normal phase TLC, silica, 50 mM EDTA pH 7; for RCY RP (7 d): reversed-phase TLC, Alugram RP-CN, acetonitrile/water 7/3
Protocol: To compare the efficiency of the synthesized chelators and their conjugates, 100 kBq of actinium-225 were incubated with each ligand at different concentrations (10^−5 M; 10^−6 M; 10^−7 M). The radiochemical yield was determined after one hour of reaction time using normal phase and reversed-phase TLC. Whereas one TLC-system was designed to move free actinium-225 with the solvent front, the other system was developed only to move the actinium-225 labeled complexes. Concentration-dependent radiochemical yields for all ligands and 7-day-longterm yields, which were calculated using both TLC systems, are presented in Table 1.
Actinium-225 was purchased as a 0.1 M HCl solution from ITM Munich and used without purification. Stem solutions of all ligands were prepared in concentrations of 10^−2 M and diluted to 10^−6 M using 0.2 M ammonium acetate buffer at pH 6. For concentration-dependent labeling experiments, 10 µL of each ligand stem solution was incubated with 100 kBq of actinium-225 (1–5 µL) and the total volume was adjusted to 100 µL with 0.2 M ammonium acetate buffer at pH 6. For stability analyses, 50 µL of the buffer volume were replaced by 50 µL of 0.2 M ascorbic acid or 50 µL of 2,5-dihydroxy benzoic acid, respectively. Labeling for cell-binding studies was performed using 1.5 MBq of actinium-225 and 4 nmol of the respective PSMA ligand in a total volume of 400 µL adjusted with 0.2 M ammonium acetate buffer at pH 6. Radiolabeling for cell survival studies and all in vivo experiments were performed using 1.5 MBq of actinium-225 and 3.3 nmol of the respective ligand.
All samples were incubated for one hour at room temperature and analyzed afterward. TLC analyses were carried out in two different systems, normal phase on silica plates in 50 mM EDTA solution (pH 7) and reversed-phase on Alugram RP-CN in acetonitrile/water (7/3). TLC plates were imaged using a phosphoimager Amersham Typhoon 5 Scanner (Cytiva Europe GmbH, Freiburg, Germany) after a decay time of at least 7 h. Analytical HPLC was performed using a Jasco HPLC system with RITA analyzer (Elysia-raytest GmbH, Straubenhardt, Germany) for gamma detection on a Phenomenex Phenyl-Hexyl column in water/acetonitrile (+ 0.1% TFA). Radioactivity was measured in Isomed 2100 dose calibrator. Low radioactivity count rates were determined in Isomed 2160 sodium iodide detector. More precise measurements and nuclide identification were carried out on an activity- and efficiency-calibrated HPGe detector CryoPulse 5 (Canberra).

logD7.4 determination = assay type: physicochemical; details: pH 7.4, 225Ac complex
LNCaP cells [2] = assay: CyQUANT direct cell proliferation assay; assay type: cell-based, human; details: highest applied dose, 4 h of exposure, cell number 24 h after treatment by DNA staining
Protocol: The treatment response on cellular proliferation was assessed using the CyQUANT direct cell proliferation assay (Thermo Fisher Scientific, Waltham, MA, USA). For this purpose, LNCaP cells were plated in black 96 well cell culture microplates (Greiner Bio-One GmbH, Frickenhausen, Germany) at a density of 2 × 10^4 cells/0.05 mL/well. […] After 1 or 4 h of incubation, the cell culture media was removed and fresh media was added to each well. Cell numbers were subsequently determined 24 h later as per the manufacturer’s protocol. The fluorescence intensity was measured with the Varioskan Flash microplate reader (Thermo Fisher Scientific, Waltham, MA, USA).

LNCaP cells [3] = assay: Colony formation assay; assay type: cell-based, human; details: for Percentage amount of colonies referred to the non-radioactive control: 8 days colony growth
Protocol: LNCaP cells were plated in 6-well cell culture microplates (Greiner Bio-One GmbH, Frickenhausen, Germany) at a density of 6 × 10^3 cells/2 mL/well. […] After 1 or 4 h of incubation, the cell culture media was removed and fresh media was added to each well. Plates were then incubated at 37 °C for 8 days and re-fed every 3 to 4 days. […] The plates were scanned with an Amersham Typhoon 5 Scanner (Cytiva Europe GmbH, Freiburg, Germany) and the colonies were counted using the Image-Quant TL software (Version 8.1, Cytiva Europe GmbH, Freiburg, Germany).

LNCaP tumor-bearing mice = assay: Biodistribution in LNCaP tumor-bearing SCID mice; assay type: in vivo, mouse
Source text: The SCID male mice (ENVIGO, Indianapolis, IN, USA) 6–8 weeks old were subcutaneously injected into the right flank with 10 × 10^6 LNCaP cells (ATCC, Manassas, VA, USA) mixed with Matrigel Matrix (Corning, Corning, NY, USA) at a 1:1 ratio. The tumor growth was continuously monitored by caliper-based measurements. When the tumor volume reached 200–300 mm^3 (i.e., 5–6 weeks after the inoculation of cells), the mice were used for biodistribution studies. The experimental animals were housed in a specific-pathogen-free animal facility. All experiments with animals were performed in accordance with appropriate legal norms (Czech Law No. 246/1992) and with the approval of the Ministry of Education, Youth and Sports (MSMT-35035/2019-3) and approval of the Ethical Committee of Faculty of Medicine and Dentistry, Palacky University in Olomouc. The number of animals was reduced as much as possible (n = 4 per group and time point) for all in vivo experiments.
For biodistribution studies, the radiotracers were diluted with saline. The prepared radiotracers were applied retro-orbitally (r.o.) to the experimental animals at a dose of 50 kBq per mouse corresponding to 10 pmol of the peptide. The tracer injection was carried out under 2% isoflurane anesthesia (FORANE, Abbott Laboratories, Abbott Park, IL, USA) to minimize animal suffering and to prevent animal motion. The mice were sacrificed by cervical dislocation 10 min, 60 min and 24 h post-injection and organs of interest (blood, spleen, pancreas, stomach, intestine, kidneys, liver, heart, lungs, muscle, bone and tumor) were collected. The samples were weighed and the activity was measured on an automatic gamma counter. The radiotracer accumulation was expressed as a percentage of injected dose per gram (%ID/g) of the corresponding organ.

[4] = 1 h incubation time, 0.05 kBq/mL
[5] = 1 h incubation time, 0.5 kBq/mL
[6] = 4 h incubation time, 0.05 kBq/mL
[7] = 4 h incubation time, 0.5 kBq/mL
[8] = LNCaP tumor-bearing SCID mice, 24 h p.i.

SMILES	RCY NP (7 d) ([1]; ligand 10^−5 M) [%]	RCY RP (7 d) ([1]; ligand 10^−5 M) [%]	RCY NP (7 d) ([1]; ligand 10^−6 M) [%]	RCY RP (7 d) ([1]; ligand 10^−6 M) [%]	RCY NP (7 d) ([1]; ligand 10^−7 M) [%]	RCY RP (7 d) ([1]; ligand 10^−7 M) [%]	logD7.4 (logD7.4 determination)	decrease of relative cell number (LNCaP cells [2])	Percentage amount of colonies referred to the non-radioactive control (LNCaP cells [3]; [4]) [%]	Percentage amount of colonies referred to the non-radioactive control (LNCaP cells [3]; [5]) [%]	Percentage amount of colonies referred to the non-radioactive control (LNCaP cells [3]; 1 h incubation time, 5 kBq/mL) [%]	Percentage amount of colonies referred to the non-radioactive control (LNCaP cells [3]; 1 h incubation time, 50 kBq/mL) [%]	Percentage amount of colonies referred to the non-radioactive control (LNCaP cells [3]; [6]) [%]	Percentage amount of colonies referred to the non-radioactive control (LNCaP cells [3]; [7]) [%]	Percentage amount of colonies referred to the non-radioactive control (LNCaP cells [3]; 4 h incubation time, 5 kBq/mL) [%]	Percentage amount of colonies referred to the non-radioactive control (LNCaP cells [3]; 4 h incubation time, 50 kBq/mL) [%]	also measured
O=C([O-])c1cccc(CN2CCOCCOCCN(Cc3cccc(C(=O)[O-])n3)CCOCCOCC2)n1.[225Ac+3] [[^225Ac]Ac-macropa, reference compound]	99	99	99	99	99	99	–	–	–	–	–	–	–	–	–	–	–
O=C(O)CC[C@H](NC(=O)N[C@@H](CCCCNC(=O)[C@H](Cc1ccc2ccccc2c1)NC(=O)[C@H]1CC[C@H](CNC(=O)CCCCn2cc(COc3cc(CN4CCOCCOCCN(Cc5cc(OCc6cn(CCCCC(=O)NC[C@H]7CC[C@H](C(=O)N[C@@H](Cc8ccc9ccccc9c8)C(=O)NCCCC[C@H](NC(=O)N[C@@H](CCC(=O)O)C(=O)O)C(=O)O)CC7)nn6)cc(C(=O)O)n5)CCOCCOCC4)nc(C(=O)O)c3)nn2)CC1)C(=O)O)C(=O)O [[^225Ac]Ac-mcp-D-PSMA, metal not drawn]	99	–	99	–	95	–	−2.5 ± 0.1	approximately one third	75.0	3.8	3.1	0.8	49.1	6.2	0.5	0.4	inhibition of colony formation (LNCaP cells [3]; 5 and 50 kBq/mL, 4 h): ~100%; Tumor-to-blood ratio (LNCaP tumor-bearing mice; mouse, in vivo): 158.11; tumor-to-muscle ratio (LNCaP tumor-bearing mice; mouse, in vivo): 275.77
C#CCOc1cc(CN2CCOCCOCCN(Cc3cc(OCC#C)cc(C(=O)[O-])n3)CCOCCOCC2)nc(C(=O)[O-])c1.[225Ac+3] [[^225Ac]Ac-mcp-D-click]	99	99	99	94	50	40	–	–	–	–	–	–	–	–	–	–	–
O=C(O)CCCCn1cc(COc2cc(CN3CCOCCOCCN(Cc4cccc(C(=O)[O-])n4)CCOCCOCC3)nc(C(=O)[O-])c2)nn1.[225Ac+3] [[^225Ac]Ac-mcp-M-COOH]	99	99	99	99	99	96	–	–	–	–	–	–	–	–	–	–	–
O=C(O)CC[C@H](NC(=O)N[C@@H](CCCCNC(=O)[C@H](Cc1ccc2ccccc2c1)NC(=O)[C@H]1CC[C@H](CNC(=O)CCCCn2cc(COc3cc(CN4CCOCCOCCN(Cc5cccc(C(=O)O)n5)CCOCCOCC4)nc(C(=O)O)c3)nn2)CC1)C(=O)O)C(=O)O [[^225Ac]Ac-mcp-M-PSMA, metal not drawn]	99	–	99	–	99	–	−2.8 ± 0.1	approximately one third	107.2	91.8	19.4	1.4	116.8	57.2	5.3	0.9	Tumor-to-blood ratio (LNCaP tumor-bearing mice; [8]): 188.42; tumor-to-muscle ratio (LNCaP tumor-bearing mice; [8]): 310.82
C#CCOc1cc(CN2CCOCCOCCN(Cc3cccc(C(=O)[O-])n3)CCOCCOCC2)nc(C(=O)[O-])c1.[225Ac+3] [[^225Ac]Ac-mcp-M-click]	99	99	99	99	58	55	–	–	–	–	–	–	–	–	–	–	–
